Measurements published in the supplement of paper PMC10307832.

Columns and labels:
Experiment in all cases: relative viability (nuclei count vs DMSO), 5 days (fraction); higher = more cells survive
[1] = test system: COR-L23
Outline: (§1)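 Lung cancer cell lines in 1536-well plates got either a single drug or a fixed anchor-drug dose together with five library-drug doses (not always all listed) in √10 steps, by pin tool, on the day after seeding. Nuclei were counted after 5 days, and relative viability is the treated-to-vehicle ratio of nuclei counts. Values are medians of duplicate plates.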

[2] = test system: HARA
Outline: as §1

[3] = test system: SK-LU-1
Outline: as §1

[4] = test system: COR-L 105
Outline: as §1

[5] = test system: NCI-H1792
Outline: as §1

[6] = test system: LCLC-103H
Outline: as §1

[7] = test system: HCC-366
Outline: as §1

[8] = test system: EPLC-272H
Outline: as §1

[9] = test system: NCI-H1975
Outline: as §1

[10] = test system: NCI-H358
Outline: as §1

[11] = test system: NCI-H1944
Outline: as §1

[12] = test system: HCC-78
Outline: as §1

O=C(O)CCCCC(CCSCc1ccccc1)SCc1ccccc1 (configuration not stated) [CPI-613] + Nc1ncn([C@H]2C[C@H](O)[C@@H](CO)O2)c(=O)n1 [Decitabine] (partner 2 µM)
relative viability ([1]; first compound 5 µM): 0.494 | relative viability ([1]; first compound 15.81 µM): 0.367 | relative viability ([1]; first compound 50 µM): 0.469 | relative viability ([1]; first compound 158.11 µM): 0.229 | relative viability ([1]; first compound 500 µM): 0.0175 | relative viability ([2]; first compound 5 µM): 0.494 | relative viability ([2]; first compound 15.81 µM): 0.467 | relative viability ([2]; first compound 50 µM): 0.575 | relative viability ([2]; first compound 158.11 µM): 0.289 | relative viability ([2]; first compound 500 µM): 0.111 | relative viability ([3]; first compound 5 µM): 0.693 | relative viability ([3]; first compound 15.81 µM): 0.527 | relative viability ([3]; first compound 50 µM): 0.533 | relative viability ([3]; first compound 158.11 µM): 0.314 | relative viability ([3]; first compound 500 µM): 0.0957 | relative viability ([4]; first compound 5 µM): 0.68 | relative viability ([4]; first compound 15.81 µM): 0.671 | relative viability ([4]; first compound 50 µM): 0.668 | relative viability ([4]; first compound 158.11 µM): 0.375 | relative viability ([4]; first compound 500 µM): 0.22 | relative viability ([5]; first compound 5 µM): 0.571 | relative viability ([5]; first compound 15.81 µM): 0.449 | relative viability ([5]; first compound 50 µM): 0.572 | relative viability ([5]; first compound 158.11 µM): 0.253 | relative viability ([5]; first compound 500 µM): 0.0627 | relative viability ([6]; first compound 5 µM): 0.753 | relative viability ([6]; first compound 15.81 µM): 0.77 | relative viability ([6]; first compound 50 µM): 0.714 | relative viability ([6]; first compound 158.11 µM): 0.29 | relative viability ([6]; first compound 500 µM): 0.288 | relative viability ([7]; first compound 5 µM): 0.339 | relative viability ([7]; first compound 15.81 µM): 0.31 | relative viability ([7]; first compound 50 µM): 0.381 | relative viability ([7]; first compound 158.11 µM): 0.202 | relative viability ([7]; first compound 500 µM): 0.0146 | relative viability ([8]; first compound 5 µM): 0.358 | relative viability ([8]; first compound 15.81 µM): 0.386 | relative viability ([8]; first compound 50 µM): 0.429 | relative viability ([8]; first compound 158.11 µM): 0.343 | relative viability ([8]; first compound 500 µM): 0.319 | relative viability ([9]; first compound 5 µM): 0.391 | relative viability ([9]; first compound 15.81 µM): 0.413 | relative viability ([9]; first compound 50 µM): 0.399 | relative viability ([9]; first compound 158.11 µM): 0.412 | relative viability ([9]; first compound 500 µM): 0.0581 | relative viability ([10]; first compound 5 µM): 0.235 | relative viability ([10]; first compound 15.81 µM): 0.2 | relative viability ([10]; first compound 50 µM): 0.219 | relative viability ([10]; first compound 158.11 µM): 0.136 | relative viability ([10]; first compound 500 µM): 0.02 | relative viability ([11]; first compound 5 µM): 0.429 | relative viability ([11]; first compound 15.81 µM): 0.406 | relative viability ([11]; first compound 50 µM): 0.395 | relative viability ([11]; first compound 158.11 µM): 0.277 | relative viability ([11]; first compound 500 µM): 0.168 | relative viability ([12]; first compound 15.81 µM): 0.709 | relative viability ([12]; first compound 50 µM): 0.836
